Measurements: publication PMC10886515, “Discovery of A Novel Series of Quinazoline–Thiazole Hybrids as Potential Antiproliferative and Anti-Angiogenic Agents” (Biomolecules, 2024)
Like-named read-outs stand apart in the source and are kept apart here.

Tests used:
[1] = test system: EA.hy926 cells; assay: Alamar Blue cytotoxicity assay on EA.hy926 cells; assay type: cell-based, human; conditions: for IC50: Homo sapiens, read-out: IC50 EA.hy926; for Selectivity Index SIa: SIa = IC50 BJ/IC50 EA.hy296
Text: (§1) A human endothelial hybrid cell line (EA.hy926) (passage number 10–15), human hepatocellular carcinoma (HepG2) cells (passage number 10–15), and normal foreskin fibroblasts (BJ) (passage number 5–10) were used in the present study. All cell lines were purchased from ATCC (Manassas, United States of America). EA.hy926 cells were maintained in DMEM with high glucose supplemented with 1% sodium pyruvate, while the BJ cells were maintained in DMEM with low glucose concentration. HepG2 cells were cultured in MEM. All media were supplemented with 10% fetal bovine serum (FBS) and 1% penicillin/streptomycin. All cell lines were cultured at 37 °C in an incubator with 5% CO2 supplementation and cellular media were refreshed every other day. Once the cells reached a confluency of 80–90%, they were either subcultured or used in experiments.
(§2) The synthesized compounds’ cytotoxicity was evaluated using the Alamar Blue (AB) assay as previously described. The metabolically active cell-dependent conversion of non-fluorescent resazurin to the highly fluorescent resorufin compound is quantified spectrophotometrically at λexcitation = 530/25; λemission = 590/35, using a Synergy 2 Multi-Mode microplate reader. Briefly, a total of 5 x 10^3 EA.hy926 and BJ cells and 1 x 10^4 HepG2 cells were seeded in 100 µL in 96 well plates. The cells were left to attach overnight. […] At 48 h post-stimulation, the media were removed, and the AB assay was performed. The reported range of concentrations for each compound was obtained by employing the up-and-down method.
(§3) The experiments were conducted in three biological replicates, each one including 6 technical replicates. Cells exposed to culture media with 0.2% DMSO served as negative control (NC) and were used for data normalization (100%). The 50% Inhibitory Concentration (IC50) values were determined based on the dose–response curves obtained by fitting the experimental data with a 4-parameter logistic curve in SigmaPlot 11 software.

[2] = test system: HepG2 cells; assay: Alamar Blue cytotoxicity assay on HepG2 cells; assay type: cell-based, human; conditions: for IC50: Homo sapiens, read-out: IC50 HepG2; for Selectivity Index SIb: SIb = IC50 BJ/IC50 HepG2
Text: as §1, §2, §3

[3] = test system: BJ cells; assay: Alamar Blue cytotoxicity assay on BJ cells; assay type: cell-based; conditions: Homo sapiens, 48 h exposure, normal foreskin fibroblasts
Text: as §1, §2, §3

[4] = test system: EA.hy926 cells; assay: Wound healing (scratch) assay; assay type: cell-based, human; conditions: 12 h
Protocol: EA.hy926 cells were seeded in 12-well plates and incubated for 24 h until confluency was reached. The medium was removed and a scratch in the cell monolayer was manually added with a sterile pipette tip. Subsequently, the cells were gently washed two times with DPBS to remove the detached cells. […] Images were captured at the time of exposure (T0) and 12 h post-exposure (T12). The rate of cell migration was determined by calculating the wound healing percentage (%) according to the formula (AT0 – AT12)/ AT0*100 previously reported. The scratch area at the initial time of exposure (AT0) and after 12 h (AT12), expressed as square pixels (Px^2), were determined using the IKOSA Prisma Application Wound Healing (Scratch) assay (v2.2.0).

[5] = test system: chorioallantoic membrane (CAM) of chicken eggs; assay: Chorioallantoic egg membrane (CAM) assay; assay type: in vivo; conditions: for peak number of vascular branching points from day 3, fold lower than control sample: day 3 vs control (0.2% DMSO); for reduction in vascular branching on day 4 compared to day 3: day 4 vs day 3; for reduction in the number of vascular branching points on day 5 compared to day 5 of the control sample: day 5 vs control (0.2% DMSO); for reduction in vascular branching on day 5 compared to day 3: day 5 vs day 3
Protocol: To assess the anti-angiogenic effects, a biological model represented by the chorioallantoic membrane (CAM) of chicken eggs was employed. […] The experimental procedure involved the following steps: (I) initial cleaning with 70% alcohol solution and incubation of the eggs at a constant humidity (45%) and temperature (37.5 °C) on the first day; (II) on the third day of embryonic development (EDD3), a small hole at the egg tip was created and approximately 5–7 mL of albumen were extracted to facilitate detachment of the chorioallantoic membrane from the inner shell; and (III) on EDD4, a window was created at the egg’s top to visualize the vascular plexus, covering it with adhesive tape, and returning the egg to the incubator until the experiment’s commencement.
The assessment of anti-angiogenic impact began on the sixth day of embryonic development and extended over five days. To achieve this, a silicon ring was applied to the CAM, and 10 μL of the tested compounds was administered daily within the ring. The evaluation of angiogenesis involved daily photographic documentation of the vascular plexus using a Discovery v.8 stereomicroscope, a Zeiss Axio CAM 105 color camera, and ZEN core 3.8 software. […] The quantitative evaluation of vessel numbers branching points and total vessel area was performed using the IKOSA Prism Application CAM assay (v3.1.0).

[6] = Solubility observed in the cellular media; assay type: physicochemical; conditions: plasma or biological fluid, read-out: concentrations at which limited solubility in the cellular media was observed
[7] = EA.hy 926, 48 h exposure, Alamar Blue
[8] = HepG2, 48 h exposure, Alamar Blue

Row | Compound | melting point | IC50 [1, 7] | Selectivity Index SIa [1] | IC50 [2, 8] | Selectivity Index SIb [2] | IC50 [3] | other results
1 | COc1cc2ncnc(Oc3ccc(/C=N/Nc4nc(-c5ccc(O)c(C(N)=O)c5)cs4)cc3)c2cc1OC [SA07, (E)-5-(2-(2-(4-((6,7-dimethoxyquinazolin-4-yl)oxy)benzylidene)hydrazineyl)thiazol-4-yl)-2-hydroxy-benzamide] | 246 to 247 °C | 5.85 µM | 4.06 | 27.3 µM | 0.87 | 23.8 µM | 
2 | COc1cc2ncnc(Oc3ccc(/C=N/Nc4nc(-c5ccc(C#N)cc5)cs4)cc3)c2cc1OC [SA05, (E)-2-(2-(4-((6,7-dimethoxyquinazolin-4-yl)oxy)benzylidene)hydrazineyl)-4-(4-benzonitrile)thiazole] |  | 1.4 µM | 1.91 | 1.83 µM | 1.46 | 2.67 µM | Wound heal (%) ([4]; 0.75 μM): 66.41%; Wound heal (%) ([4]; 1 μM): 62.45%; Wound heal (%) ([4]; 1.25 μM): 61.52%; Wound heal (%) ([4]; 1.5 μM): 54.42%; fold higher activity compared to sorafenib ([2]; HepG2 cells): 3.5 fold; peak number of vascular branching points from day 3, fold lower than control sample [5]: 1.18 fold; reduction in vascular branching on day 4 compared to day 3 [5]: 16%; reduction in the number of vascular branching points on day 5 compared to day 5 of the control sample [5]: 42%; reduction in vascular branching on day 5 compared to day 3 [5]: 39%
3 | COc1cc2ncnc(Oc3ccc(/C=N/Nc4nc(-c5ccc(Cl)cc5)cs4)cc3)c2cc1OC [SA03, (E)-2-(2-(4-((6,7-dimethoxyquinazolin-4-yl)oxy)benzylidene)hydrazineyl)-4-(4-chlorophenyl)-thiazole] | 231 to 232 °C | 0.79 µM | 3.59 | 4.24 µM | 0.67 | 2.84 µM | fold higher activity compared to sorafenib ([1]; EA.hy926 cells): 8.3 fold
4 | CNC(=O)c1cc(Oc2ccc(NC(=O)Nc3ccc(Cl)c(C(F)(F)F)c3)cc2)ccn1 [Sorafenib, sorafenib, reference compound] |  |  |  |  |  | 13.2 µM | Wound heal (%) ([4]; 1.25 μM): 70.54%; Wound heal (%) ([4]; 2.5 μM): 37.99%; Wound heal (%) ([4]; 5 μM): 18.88%; IC50 ([1]; EA.hy 926, 48 h): 6.62 µM; IC50 ([2]; HepG2, 48 h): 6.28 µM
5 | COc1cc2ncnc(Oc3ccc(/C=N/Nc4nc(-c5ccc(F)cc5)cs4)cc3)c2cc1OC [SA02, (E)-2-(2-(4-((6,7-dimethoxyquinazolin-4-yl)oxy)benzylidene)hydrazineyl)-4-(4-fluorophenyl)-thiazole] | 242 to 243 °C | 0.93 µM | 2.53 | 2.34 µM | 1.00 | 2.35 µM | 
6 | COc1ccc(-c2csc(N/N=C/c3ccc(Oc4ncnc5cc(OC)c(OC)cc45)cc3)n2)cc1 [SA01, (E)-2-(2-(4-((6,7-dimethoxyquinazolin-4-yl)oxy)-benzylidene)hydrazineyl)-4-(4-methoxyphenyl)-thiazole] | 230 °C | 3.64 µM | 9.96 | 31.2 µM | 1.16 | 36.2 µM | 
7 | COc1cc2ncnc(Oc3ccc(/C=N/Nc4nc(C)cs4)cc3)c2cc1OC [SA06, (E)-2-(2-(4-((6,7-dimethoxyquinazolin-4-yl)-oxy)-benzylidene-)hydrazineyl)-4-methyl-thiazole] |  | > 10 µM |  | > 100 µM |  | > 100 µM | solubility [6]: > 5 µM
8 | COc1cc2ncnc(Oc3ccc(/C=N/Nc4nc(-c5ccc(C(F)(F)F)cc5)cs4)cc3)c2cc1OC [SA04, (E)-2-(2-(4-((6,7-dimethoxyquinazolin-4-yl)oxy)benzylidene)hydrazineyl)-4-(4-(trifluoromethyl)-phenyl)thiazole] | 237 to 238 °C | 0.98 µM | 6.93 | 2.72 µM | 2.50 | 6.79 µM | Wound heal (%) ([4]; 0.25 μM): 63.45%; Wound heal (%) ([4]; 0.5 μM): 46.99%; Wound heal (%) ([4]; 0.75 μM): 46.83%; Wound heal (%) ([4]; 1 μM): 43.87%; peak number of vascular branching points from day 3, fold lower than control sample [5]: 1.3 fold; reduction in vascular branching on day 4 compared to day 3 [5]: 47%; reduction in the number of vascular branching points on day 5 compared to day 5 of the control sample [5]: 67%; reduction in vascular branching on day 5 compared to day 3 [5]: 60%
